This note sets out measurements from US20060264460A1 (Wyeth, priority 2005, published 2006).

Some results are limits rather than exact numbers.

The target in the first experiment is T1, human Cot/Tpl2 kinase (Homo sapiens, UniProt P41279).
T1 construct: human Cot/Tpl2 kinase construct encoding residues 30-398; 6His (N); made in house; host or cells: Sf9 insect cells, baculovirus system (BD Biosciences)
T1 sequence (P41279 30-398): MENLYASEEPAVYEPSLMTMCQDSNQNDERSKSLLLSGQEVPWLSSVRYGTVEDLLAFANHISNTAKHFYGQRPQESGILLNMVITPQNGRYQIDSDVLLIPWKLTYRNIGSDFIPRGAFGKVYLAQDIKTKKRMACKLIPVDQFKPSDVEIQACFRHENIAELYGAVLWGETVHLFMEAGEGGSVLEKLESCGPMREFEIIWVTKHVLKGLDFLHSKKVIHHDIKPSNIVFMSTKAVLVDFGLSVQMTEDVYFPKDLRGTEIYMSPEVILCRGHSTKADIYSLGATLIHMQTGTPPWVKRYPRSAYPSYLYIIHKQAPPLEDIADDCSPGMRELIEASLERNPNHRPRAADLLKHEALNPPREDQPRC
Kind of experiment: Tpl2/Cot kinase assay: GST-MEK1 phosphorylation detected by ELISA (DELFIA Eu). It counts as biochemical. Conditions: 0.4 nM Tpl2, 35 nM GST-MEK1, 50 uM ATP, 1 h at 30° C. In a few lines: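 His-tagged human Tpl2 from Sf9 cells, Ni-affinity and size-exclusion purified (monomer). 0.4 nM Tpl2 with 35 nM GST-MEK1, 50 uM ATP, MOPS pH 7.2, 1% DMSO, 1 h at 30° C; EDTA stop. MEK1 Ser217/221 phosphorylation detected by anti-phospho-MEK1 and Eu-labelled secondary ELISA; IC50 fitted.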
For orientation: In an ELISA, binding on a coated surface is turned into a signal by an enzyme label.
With `N#Cc1cnc2c(Cl)cc(NCc3cn(CC(=O)NCc4ccccn4)nn3)cc2c1Nc1ccc(F)c(Cl)c1` [Example 320, 2-(4-((8-chloro-4-(3-chloro-4-fluorophenylamino)-3-cyanoquinolin-6-ylamino)methyl)-1H-1,2,3-triazol-1-yl)-N-(pyridin-2-ylmethyl)acetamide], 0.0056 µM corresponded to half-maximal inhibition (IC50).

Consider `Cc1c(CNc2ccc3ncc(C#N)c(Nc4ccc(F)c(Cl)c4)c3c2)ncn1CCN1CCOCC1` [Example 129, 4-(3-chloro-4-fluorophenylamino)-6-((5-methyl-1-(2-morpholinoethyl)-1H-imidazol-4-yl)methylamino)quinoline-3-carbonitrile], for which the IC50 (in general, the point on the concentration scale where inhibition reaches its midpoint) was 0.014 µM. This IC50 lies about 2.5-fold higher than the previous one.

As for `N#Cc1cnc2c(Br)cc(NCc3nn[nH]c3CNCCO)cc2c1Nc1ccc(F)c(Cl)c1` [Example 295, 8-Bromo-4-(3-chloro-4-fluoro-phenylamino)-6-({5-[(2-hydroxy-ethylamino)-methyl]-1H-[1,2,3]triazol-4-ylmethyl}-amino)-quinoline-3-carbonitrile], the IC50 worked out at 0.067 µM.

As to `N#Cc1cnc2c(Cl)cc(NCc3cccc[n+]3[O-])cc2c1Nc1ccc(F)c(Cl)c1` [Example 182, 8-chloro-4-[(3-chloro-4-fluorophenyl)amino]-6-{[(1-oxidopyridin-2-yl)methyl]amino}quinoline-3-carbonitrile], half-maximal inhibition (IC50) was put at 0.018 µM. This IC50 is about 3.7-fold lower than that of the compound before.

For `N#Cc1cnc2ccc(NCc3cccc(N)c3)cc2c1Nc1ccc(F)c(Cl)c1` [Example 14, 6-(3-Amino-benzylamino)-4-(3-chloro-4-fluoro-phenylamino)-quinoline-3-carbonitrile], the IC50 turned out to be 0.14 µM.

With `N#Cc1cnc2c(C#N)cc(NCc3cccnc3)cc2c1Nc1cccc(Cl)c1` [Example 74, 4-(3-chlorophenylamino)-6-(pyridin-3-ylmethylamino)quinoline-3,8-dicarbonitrile], the 50% inhibitory concentration (IC50) came to 0.14 µM.

Take `CC(Nc1ccc2ncc(C#N)c(Nc3ccc(F)c(Cl)c3)c2c1)c1ccccn1` (centres unmarked) [Example 127, 4-(3-chloro-4-fluorophenylamino)-6-(1-(pyridin-2-yl)ethylamino)quinoline-3-carbonitrile]: the half-inhibitory concentration (IC50) amounted to 0.064 µM. This IC50 lies about 2.2-fold lower than the previous one.

As to `N#Cc1cnc2c(C(F)(F)F)cc(NCc3cccnc3)cc2c1Nc1ccc(F)c(Cl)c1` [Example 230, 4-[(3-chloro-4-fluorophenyl)amino]-6-[(pyridin-3-ylmethyl)amino]-8-(trifluoromethyl)quinoline-3-carbonitrile], the concentration for half-maximal inhibition (IC50) is over 40 µM.

The compound `N#Cc1cnc2ccc(NCc3cnc(N4CCOCC4)s3)cc2c1Nc1ccc(F)c(Cl)c1` [Example 243, 4-[(3-chloro-4-fluorophenyl)amino]-6-{[(2-morpholin-4-yl-1,3-thiazol-5-yl)methyl]amino}quinoline-3-carbonitrile] yielded a half-maximal inhibitory concentration (IC50) of over 40 µM.

On to `Cc1nc(CNc2cc(Cl)c3ncc(C#N)c(Nc4ccc(F)c(Cl)c4)c3c2)cn1CC(N)=O` [Example 191, 2-(4-((8-chloro-4-(3-chloro-4-fluorophenylamino)-3-cyanoquinolin-6-ylamino)methyl)-2-methyl-1H-imidazol-1-yl)acetamide], for which 0.064 µM corresponded to half-maximal inhibition (IC50). In other words, the double-digit nanomolar range.

Take `N#Cc1cnc2c(Br)cc(NCCN3CCOCC3)cc2c1Nc1cccc(Cl)c1` [Example 69, 8-bromo-4-(3-chlorophenylamino)-6-(2-morpholinoethylamino)quinoline-3-carbonitrile]: the IC50 came out at 0.42 µM.

Staying with this experiment, now noted: Table 2; Tpl2/Cot kinase, GST-MEK1 substrate, 50 uM ATP.
`CNCCn1cc(CNc2cc(Cl)c3ncc(C#N)c(Nc4ccc(F)c(Cl)c4)c3c2)nn1` [Example 513] came in with a 50% inhibitory concentration (IC50) of 0.029 µM.

Take `CN(C)CCCNC(=O)CNc1cc(Cl)c2ncc(C#N)c(Nc3ccc(F)c(Cl)c3)c2c1` [Example 603]: the concentration for half-maximal inhibition (IC50) is over 3 µM.

In the case of `C=CCn1cnc(CNc2cc(Br)c3ncc(C#N)c(Nc4ccc(F)c(Cl)c4)c3c2)c1` [Example 551], the midpoint of inhibition, the IC50, lay at 0.0048 µM. That is a single-digit nanomolar value.

The compound `N#Cc1cnc2ccc(NCCN3CCOCC3)cc2c1Nc1ccc(Br)cc1` [Example 355] gave a half-maximal inhibitory concentration (IC50) of over 10 µM.

As for `CC(C)(C)Nc1c(C#N)cnc2ccc(NCc3ccc(S(N)(=O)=O)cc3)cc12` [Example 408], half-maximal inhibition (IC50) required 21.9 µM.

Turning to `CN(C)C(=O)c1cc(N)cc2c(Nc3ccc(F)c(Cl)c3)c(C#N)cnc12` [Example 396], the 50% inhibitory concentration (IC50) was found to be 6 µM.

`COc1ccc(CNc2ccc3ncc(C#N)c(Nc4ccc(F)c(F)c4)c3c2)cn1` [Example 340] registered a half-inhibitory concentration (IC50) of 0.44 µM.

In turn, `CN(CCn1cc(CN(Cc2cn(CCN(C)C(=O)OC(C)(C)C)nn2)c2cc(Br)c3ncc(C#N)c(Nc4ccc(F)c(Cl)c4)c3c2)nn1)C(=O)OC(C)(C)C` [Example 501] registered a concentration for half-maximal inhibition (IC50) of 4.7 µM.

In the case of `N#Cc1cnc2ccc(N)cc2c1NC1CCCC1` [Example 402], the half-inhibitory concentration (IC50) is over 40 µM.

As for `N#Cc1cnc2c(Br)cc(NCc3cn(COCc4ccccc4)nn3)cc2c1Nc1ccc(F)c(Cl)c1` [Example 638], the IC50 is over 3 µM.

In turn, `N#Cc1cnc2ccc(NCc3cccc[n+]3[O-])cc2c1NC1CCCC1` [Example 410] displayed a half-inhibitory concentration (IC50) of 1.3 µM.

`N#Cc1cnc2c(Cl)cc(NCC(CO)c3ccncc3)cc2c1Nc1ccc(F)c(Cl)c1` (centres unmarked) [Example 637]: the IC50 is over 3 µM.

The same experiment, now with this note: Tpl2/Cot kinase, GST-MEK1 substrate, 50 uM ATP.
The compound `N#Cc1cnc2c(Br)cc(NCc3cn(C4CCCC4)cn3)cc2c1Nc1ccc(F)c(Cl)c1` [Example 799] gave a concentration for half-maximal inhibition (IC50) of 0.23 µM.

For `CN1CCC[C@H]1Cn1cc(CNc2cc(Cl)c3ncc(C#N)c(Nc4ccc(F)c(Cl)c4)c3c2)nn1` [Example 894], the half-maximal inhibitory concentration (IC50) stood at 0.0018 µM.

Consider `CN1CCC(Cn2cc(CN(C)c3cc(Br)c4ncc(C#N)c(Nc5ccc(F)c(Cl)c5)c4c3)nn2)CC1` [Example 679], for which the IC50 was found to be 0.29 µM.

Turning to `N#Cc1cnc2c(Cl)cc(NCC(=O)N3CCCCCC3)cc2c1Nc1ccc(F)c(Cl)c1` [Example 885], inhibition was half-maximal at 0.39 µM (IC50).

Regarding `CC(C)(C)OC(=O)N1CCC(CCn2cc(CN(Cc3cn(CCC4CCN(C(=O)OC(C)(C)C)CC4)nn3)c3cc(Br)c4ncc(C#N)c(Nc5ccc(F)c(Cl)c5)c4c3)nn2)CC1` [Example 693], the IC50 is over 3 µM.

`CCN1CCC(Nc2ccc3ncc(C#N)c(Nc4ccc(F)c(Cl)c4)c3c2)C(C)C1` (centres unmarked) [Example 659] had a half-maximal inhibitory concentration (IC50) of over 40 µM.

For the compound `N#Cc1cnc2c(Cl)cc(NCCNS(=O)(=O)c3ccccc3)cc2c1Nc1ccc(F)c(Cl)c1` [Example 854], the midpoint of inhibition, the IC50, lay at 1.96 µM.

Take `CN(C)CCNC(=O)CNc1cc(Cl)c2ncc(C#N)c(Nc3ccc(F)c(Cl)c3)c2c1` [Example 778]: half-maximal inhibition (IC50) was put at 1.6 µM.

Still in this experiment, the particulars now being: Tpl2/Cot kinase, GST-MEK1 substrate, 50 uM ATP, 1 h at 30° C.; Table 2.
Consider `CCNC1CCC(n2cc(CNc3cc(Cl)c4ncc(C#N)c(Nc5ccc(F)c(Cl)c5)c4c3)nn2)CC1` (centres unmarked) [Example 1035], for which 0.036 µM corresponded to half-maximal inhibition (IC50).

Compound `N#Cc1cnc2c(Cl)cc(NCc3cn(C4CCN(C5CC5)CC4)nn3)cc2c1Nc1ccc(F)c(Cl)c1` [Example 1003] yielded a half-maximal inhibitory concentration (IC50) of 0.017 µM. This IC50 is about 2.1-fold lower than that of the compound before.

Turning to `CN1CCCC1CCn1cc(CNc2cc(Cl)c3ncc(C#N)c(NC4CCC4)c3c2)nn1` (centres unmarked) [Example 951], it took 0.46 µM to reach half-maximal inhibition (IC50).

Regarding `N#Cc1cnc2c(Cl)cc(NCc3cn(C4CCOC4=O)nn3)cc2c1Nc1ccc(F)c(Cl)c1` (centres unmarked) [Example 934], the IC50 was determined as 0.018 µM.

Turning to `CCNC(=O)N1CCC(n2cc(CNc3cc(Cl)c4ncc(C#N)c(Nc5ccc(F)c(Cl)c5)c4c3)nn2)CC1` [Example 931], it took 0.0189 µM to reach half-maximal inhibition (IC50).

As to `N#Cc1cnc2c(Cl)cc(NCc3cn(C4CCCN(CC(F)(F)C(F)(F)F)CC4)nn3)cc2c1Nc1ccc(F)c(Cl)c1` (centres unmarked) [Example 1012], the IC50 is over 3 µM.

`N#Cc1cnc2c(Cl)cc(NCc3cccs3)cc2c1Nc1ccc(F)c(Cl)c1` [Example 1002] displayed a concentration for half-maximal inhibition (IC50) of over 3 µM.
